Reference: US20240390306A1, “Monohydrate Salt of Denatonium Acetate” (priority 2021, published 2024)
Entries after “also recorded” stand apart in the source; their conditions may differ. Read-outs that look alike come from different tables or passages of the source. Blank lines part the entries; values can stand above or below the compound they belong to.

Key:
[1] = Gravimetric Vapor Sorption (GVS) experiments; type: physicochemical
Method: Several Gravimetric Vapor Sorption (GVS) experiments were carried out to investigate the behavior of DAM over a range of different relative humidity levels. […] This experiment used a similar method to GVS 1 without the steps involving 90% RH where the large mass changes were observed and equilibrium was not reached. […] Most of the mass change (1.3-1.4% increase) occurred between 0-10% RH. […] It also loses mass when taken to relative humidity levels of less than 10%.

[2] = Storage under stress conditions (temperature / relative humidity); type: physicochemical
From the text: It also lost mass when taken to relative humidity levels of less than 10%.
It also loses mass when taken to relative humidity levels of less than 10%.
It was then removed from the instrument and a portion immediately analyzed by XRPD.

[3] = Polymorph screen: solvent addition to ca. 10 mg DAM, initial observation (solubility); type: physicochemical
Method: The resultant samples were refrigerated (solutions) or shaken at room temperature (suspensions) for several days. The samples that had initially formed solutions were examined for signs of solid formation after refrigeration. If solid material had formed, it was analyzed by XRPD. If no solid had formed the vials were uncapped and the solutions evaporated, and solid residues analyzed by XRPD. For samples which had initially formed suspensions-if solid was still present it was analyzed by XRPD. The supernatant from the suspension was filtered and then the filtrates were then treated as the solutions above. In some experiments further solid was obtained from evaporation of the filtrates and was analyzed by XRPD where the quantity of material allowed.

[4] = Particle size distribution; type: physicochemical
From the text: The sample was highly crystalline.

[5] = Polymorph screen: solvent addition to ca. 10 mg DAM, initial observation (solubility); type: physicochemical; remark: listed apart in the source
[6] = type: physicochemical; settings: for form by XRPD after storage: closed vial, 6 weeks
From the text: It was then removed from the instrument and a portion immediately analyzed by XRPD. […]
A summary of the characterization data for the samples of Pattern 5 can be found in Table 9.

form by XRPD after storage ([2]; 25° C., 96% RH, 7 days): Amorphous | Initial observation ([3]; ca. 10 mg in 1-Pentanol, 50 μL): Soluble | Initial observation ([3]; ca. 10 mg in 2-Butanol, 50 μL): Soluble | Initial observation ([3]; ca. 10 mg in 2-Ethoxyethanol, 25 μL): Soluble | Initial observation ([3]; ca. 10 mg in 2-Methoxyethanol, 25 μL): Soluble | Initial observation ([3]; ca. 10 mg in Acetic acid, 25 μL): Soluble | Initial observation ([3]; ca. 10 mg in Acetone, 1000 μL): Soluble | Initial observation ([3]; ca. 10 mg in Diisopropyl ether, 1000 μL): Suspension | Initial observation ([3]; ca. 10 mg in Dimethylsulfoxide, 100 μL): Solution | Initial observation ([3]; ca. 10 mg in Ethyl acetate, 1000 μL): Suspension | Initial observation ([3]; ca. 10 mg in Ethyl formate, 50 μL): Soluble | Initial observation ([3]; ca. 10 mg in MeCN + 5% water, 50 μL): Solution | Initial observation ([3]; ca. 10 mg in MeOH + 5% water, 25 μL): Solution | Initial observation ([3]; ca. 10 mg in Methylethyl ketone, 800 μL): Soluble | Initial observation ([3]; ca. 10 mg in Tetrahydrofuran, 1000 μL): Suspension | PSD D10 [4]: 1.62 μm | PSD D50 [4]: 23.09 μm | Initial observation ([5]; ca. 10 mg in 1,2-Dimethoxyethane, 1000 μL): Suspension | Initial observation ([5]; ca. 10 mg in 1,4-Dioxane, 1000 μL): Suspension | Initial observation ([5]; ca. 10 mg in 1-Butanol, 50 μL): Soluble | Initial observation ([5]; ca. 10 mg in 1-Propanol, 25 μL): Soluble | Initial observation ([5]; ca. 10 mg in 2-Methyl-1-Propanol, 50 μL): Soluble | Initial observation ([5]; ca. 10 mg in 2-Pentanone, 1000 μL): Suspension | Initial observation ([5]; ca. 10 mg in 2-Propanol, 50 μL): Soluble | Initial observation ([5]; ca. 10 mg in 3-Methyl-1-Butanol, 50 μL): Soluble | Initial observation ([5]; ca. 10 mg in 4-Methyl-2-pentanone, 1000 μL): Suspension | Initial observation ([5]; ca. 10 mg in Acetone + 5% water, 50 μL): Solution | Initial observation ([5]; ca. 10 mg in Acetonitrile, 200 μL): Soluble | Initial observation ([5]; ca. 10 mg in Anisole, 750 μL): Suspension | Initial observation ([5]; ca. 10 mg in Benzonitrile, 500 μL): Nearly all | Initial observation ([5]; ca. 10 mg in Benzyl alcohol, 25 μL): Solution | Initial observation ([5]; ca. 10 mg in Butyl acetate, 1000 μL): Suspension | Initial observation ([5]; ca. 10 mg in Chloroform, 50 μL): Soluble | Initial observation ([5]; ca. 10 mg in Cumene, 1000 μL): Suspension | Initial observation ([5]; ca. 10 mg in Diethyl ether, 1000 μL): Suspension | Initial observation ([5]; ca. 10 mg in EtOH + 5% water, 25 μL): Solution | Initial observation ([5]; ca. 10 mg in Ethanol, 25 μL): Soluble | Initial observation ([5]; ca. 10 mg in Formic acid, 25 μL): Soluble | Initial observation ([5]; ca. 10 mg in IPA + 5% water, 50 μL): Solution | Initial observation ([5]; ca. 10 mg in Isobutyl acetate, 1000 μL): Suspension | Initial observation ([5]; ca. 10 mg in Isopropyl acetate, 1000 μL): Suspension | Initial observation ([5]; ca. 10 mg in Methanol, 25 μL): Soluble | Initial observation ([5]; ca. 10 mg in Methyl acetate, 1000 μL): Suspension | Initial observation ([5]; ca. 10 mg in Methylbutyl ketone, 1000 μL): Suspension | Initial observation ([5]; ca. 10 mg in Pentane, 1000 μL): Suspension | Initial observation ([5]; ca. 10 mg in Propyl acetate, 1000 μL): Suspension | Initial observation ([5]; ca. 10 mg in Toluene, 1000 μL): Suspension | Initial observation ([5]; ca. 10 mg in Water, 20 μL): Soluble | Initial observation ([5]; ca. 10 mg in heptane, 1000 μL): Suspension | Initial observation ([5]; ca. 10 mg in t-Butanol, 100 μL): Soluble | Initial observation ([5]; ca. 10 mg in t-Butylmethyl ether, 1000 μL): Suspension
SMILES: CC(=O)[O-].CC[N+](CC)(CC(=O)Nc1c(C)cccc1C)Cc1ccccc1 [DAM, denatonium acetate monohydrate]
sample appearance after GVS ([1]; post GVS 1 (40-90-0-90-0-40)): sorption cycle. Sample had formed a solid mass with powdery | sample appearance after GVS ([1]; post GVS 2 (40-80-0-80-0-40), acetate monohydrate): remained as a free-flowing powder; also recorded: Sample remained free flowing solid | sample appearance after GVS ([1]; post GVS 3 (40-0-80-0-80-0-40), acetate monohydrate): remained as a free-flowing powder; also recorded: Sample remained free flowing solid | form by XRPD after storage ([2]; 0% RH (open vial in GVS instrument, 2 days), acetate monohydrate): converted to Pattern 5; also recorded: consistent with Pattern 5; also recorded: change in form to Pattern 5 | form by XRPD after storage ([2]; 40° C., 75% RH, 7 days): Shows no change in form by XRPD after 7 days

form stability [6]: metastable | form after standing ([6]; ambient laboratory conditions, within a few hours): converts to Pattern 1 | form by XRPD after storage [6]: converted to Pattern 1 | form by XRPD after storage ([6]; listed as DAM Pattern 5): Conversion to Pattern 1 by XRPD | form by XRPD after standing ([6]; on XRPD disc at room temperature overnight, listed as DAM Pattern 5): Conversion to Pattern 1 by XRPD | form by XRPD after standing ([6]; on XRPD disc, ambient laboratory conditions, 4 hours, listed as DAM Pattern 5): Conversion to Pattern 1 by XRPD
SMILES: CC(=O)[O-].CC[N+](CC)(CC(=O)Nc1c(C)cccc1C)Cc1ccccc1 [Pattern 5]
form by XRPD after standing ([6]; on XRPD disc at room temperature overnight): convert to Pattern 1; also recorded: reverted to Pattern 1
